Experimental data: patent US20250098726A1, “AEROSOLISABLE MATERIAL” (Nicoventures Trading Limited, priority 2022, published 2025)

Assay: solubility trial of sensates in propylene glycol/glycerol mixture
Type: physicochemical
Conditions: PG:VG 70:30, sensate w/w % subtracted from PG (Symheat PV 1, WS-3 0.8, Ginger Extract 0.1 w/w %); one hour following addition of VG
Description: Formulations were produced containing propylene glycol (PG) and glycerol (VG) at a 70:30 ratio with the w/w % sensate addition subtracted from the w/w % of propylene glycol as is typical in the art.

CCNC(=O)[C@@H]1C[C@H](C)CC[C@H]1C(C)C (stereo in doubt) [WS-3, N-ethyl-5-methyl-2-propan-2-ylcyclohexane-1-carboxamide]
Soluble: ✓
